Measured values published in ChEMBL document CHEMBL5032522, “N-2-(phenylamino) benzamide derivatives as novel anti-glioblastoma agents: Synthesis and biological evaluation” (Eur J Med Chem, 2021).
Activity calls are given as the source filed them. The calls are words filed in the database; no cut-off is given here.

How the values were obtained:
C6 [1] = assay: Antiproliferative activity against rat C6 cells assessed as inhibition of cell growth measured after 72 hrs by CCK-8 assay; format: functional, cell-based; details: C6, 72 h
DNA topoisomerase 1 = target: T1, DNA topoisomerase 1 (Homo sapiens, UniProt P11387); assay: Inhibition of human topoisomerase I using DNA pBR322 as substrate assessed as DNA relaxation incubated for 45 mins by ethidium bromide staining based agarose gel electrophoresis
T1 sequence (P11387 whole entry): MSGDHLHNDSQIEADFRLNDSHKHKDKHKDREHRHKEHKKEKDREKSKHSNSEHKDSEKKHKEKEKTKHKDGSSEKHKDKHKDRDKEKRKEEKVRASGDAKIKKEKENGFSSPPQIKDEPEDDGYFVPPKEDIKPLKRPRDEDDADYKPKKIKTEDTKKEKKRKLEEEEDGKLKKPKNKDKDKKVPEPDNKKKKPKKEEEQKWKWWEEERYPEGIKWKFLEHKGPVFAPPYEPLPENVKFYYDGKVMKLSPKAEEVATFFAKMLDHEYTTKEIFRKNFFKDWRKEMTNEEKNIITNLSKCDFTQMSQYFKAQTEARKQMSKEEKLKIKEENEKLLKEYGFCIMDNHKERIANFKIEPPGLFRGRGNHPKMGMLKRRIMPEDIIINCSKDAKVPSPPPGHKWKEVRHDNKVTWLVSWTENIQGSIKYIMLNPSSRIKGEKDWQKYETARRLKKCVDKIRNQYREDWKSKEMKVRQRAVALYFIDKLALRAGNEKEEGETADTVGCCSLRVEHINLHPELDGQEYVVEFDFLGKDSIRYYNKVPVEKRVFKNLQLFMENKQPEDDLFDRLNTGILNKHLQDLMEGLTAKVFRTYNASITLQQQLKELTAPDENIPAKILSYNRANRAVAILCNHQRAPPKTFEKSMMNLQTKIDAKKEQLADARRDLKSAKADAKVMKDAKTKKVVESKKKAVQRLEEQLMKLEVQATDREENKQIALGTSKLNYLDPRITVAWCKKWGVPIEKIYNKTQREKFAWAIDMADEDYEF

[2] = target: DNA topoisomerase 2-alpha (Homo sapiens) (UniProt P11388); assay: Inhibition of human topoisomerase 2 alpha using supercoiled DNA pBR322 as substrate assessed as DNA relaxation at 100 uM incubated for 30 mins by ethidium bromide staining based agarose gel electrophoresis
U-251 [3] = assay: Antiproliferative activity against human U-251 cells assessed as inhibition of cell growth measured up to 72 hrs by CCK-8 assay; format: functional, cell-based; details: time hrs <=72
U-87 MG [4] = assay: Induction of morphological changes in human U-87 MG cells assessed as appearance of spindle cell shape at 3.3 uM incubated for 72 hrs by Giemsa staining based light microscopic method; format: functional; details: U-87MG ATCC
U-87 MG [5] = assay: Inhibition of colony formation in human U-87 MG cells measured after 8 days by crystal violet staining based assay; format: functional, cell-based; details: U-87MG ATCC, time 8.0 day
U-87 MG [6] = assay: Induction of cell cycle arrest in human U-87 MG cells assessed as accumulation of cells at G2/M phase incubated for 72 hrs by propidium iodide/RNase A staining based flow cytometry analysis; format: functional; details: U-87MG ATCC
U-251 [7] = assay: Induction of cell cycle arrest in human U-251 cells assessed as increase in G2 phase accumulation at 10 uM incubated for 72 hrs by propidium iodide/RNase A staining based flow cytometry (reference value: 20.88%); format: functional
U-251 [8] = assay: Inhibition of cell migration in human U-251 cells incubated for 24 hrs by crystal violet staining based light microscopic analysis; format: functional
[9] = Acute toxicity in Kunming mouse assessed as death at 750 mg/kg, ip administered as single dose observed every day for 14 days; format: organism-based; details: in vivo, 336 h, time 14 day
[10] = Tmax in Sprague-Dawley rat at 100 mg/kg, ip measured up to 24 hrs by LC-MS analysis; format: ADME, organism-based; details: in vivo
[11] = Cmax in Sprague-Dawley rat at 100 mg/kg, ip measured up to 24 hrs by LC-MS analysis; format: ADME, organism-based; design: route intraperitoneal, dose 100 mg/kg, time <=24; details: in vivo
[12] = Drug concentration in Sprague-Dawley rat plasma at 100 mg/kg, ip measured 6 hrs post administration by LC-MS analysis; format: ADME, organism-based
C6 [13] = assay: Antitumor activity against rat C6 cells inoculated orthotopic Sprague-Dawley rat model assessed as reduction in tumor volume at 100 mg/kg, ip bid administered for 14 days; format: functional, organism-based; details: time 14.0 day
[14] = Toxicity in Sprague-Dawley rat inoculated with C6 cells assessed as reduction in body weight at 100 mg/kg, ip bid administered for 14 days; format: organism-based; details: in vivo, 336 h, time 14 day
C6 [15] = assay: Antitumor activity against rat C6 cells inoculated orthotopic Sprague-Dawley rat model assessed as tumor growth inhibition at 100 mg/kg, ip bid administered for 14 days by MRI scanner relative to control; format: functional; details: 336 h, time 14 day, read-out: TGI
U-87 MG [16] = assay: Antiproliferative activity against human U-87 MG cells assessed as cell survival at <= 1.1 uM measured after 24 hrs by CCK-8 assay; format: functional, U-87MG ATCC; details: dose microM <=1.1
U-251 [17] = assay: Antiproliferative activity against human U-251 cells assessed as cell survival at <= 1.1 uM measured after 24 hrs by CCK-8 assay; format: functional; details: dose microM <=1.1
U-87 MG [18] = assay: Induction of morphological changes in human U-87 MG cells assessed as membrane blebbing at 3.3 uM incubated for 72 hrs by Giemsa staining based light microscopic method; format: functional, cell-based; details: U-87MG ATCC
U-251 [19] = assay: Induction of morphological changes in human U-251 cells assessed as membrane blebbing at 3.3 uM incubated for 72 hrs by Giemsa staining based light microscopic method; format: functional, cell-based
[20] = target: T2, Prostaglandin G/H synthase 2 (Homo sapiens) (UniProt P35354); assay: Inhibition of COX-2 in human U-87 MG cells assessed as inhibition of PGE2 production measured after 72 hrs; format: cell-based
T2 sequence (whole entry): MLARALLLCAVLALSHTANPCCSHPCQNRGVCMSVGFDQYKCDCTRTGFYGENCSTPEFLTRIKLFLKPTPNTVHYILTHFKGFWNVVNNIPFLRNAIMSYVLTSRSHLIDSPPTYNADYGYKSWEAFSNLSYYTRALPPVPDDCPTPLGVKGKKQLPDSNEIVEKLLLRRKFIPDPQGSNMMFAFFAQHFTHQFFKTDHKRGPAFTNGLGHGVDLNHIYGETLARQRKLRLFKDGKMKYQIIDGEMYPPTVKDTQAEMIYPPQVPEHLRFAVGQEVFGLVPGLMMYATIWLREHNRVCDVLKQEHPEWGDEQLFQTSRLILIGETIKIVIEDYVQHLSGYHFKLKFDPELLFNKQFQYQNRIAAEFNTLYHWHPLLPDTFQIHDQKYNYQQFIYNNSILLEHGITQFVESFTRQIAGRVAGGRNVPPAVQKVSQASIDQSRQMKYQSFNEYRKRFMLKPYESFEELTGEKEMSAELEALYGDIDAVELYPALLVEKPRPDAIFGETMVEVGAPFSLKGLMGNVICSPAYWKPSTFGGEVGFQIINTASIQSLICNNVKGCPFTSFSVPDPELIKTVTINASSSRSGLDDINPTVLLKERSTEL

U-87 MG [21] = assay: Induction of cell cycle arrest in human U-87 MG cells assessed as increase in G2 phase accumulation at 10 uM incubated for 72 hrs by propidium iodide/RNase A staining based flow cytometry; format: functional; details: U-87MG ATCC

Sequence of DNA topoisomerase 2-alpha (Homo sapiens) (P11388 whole entry): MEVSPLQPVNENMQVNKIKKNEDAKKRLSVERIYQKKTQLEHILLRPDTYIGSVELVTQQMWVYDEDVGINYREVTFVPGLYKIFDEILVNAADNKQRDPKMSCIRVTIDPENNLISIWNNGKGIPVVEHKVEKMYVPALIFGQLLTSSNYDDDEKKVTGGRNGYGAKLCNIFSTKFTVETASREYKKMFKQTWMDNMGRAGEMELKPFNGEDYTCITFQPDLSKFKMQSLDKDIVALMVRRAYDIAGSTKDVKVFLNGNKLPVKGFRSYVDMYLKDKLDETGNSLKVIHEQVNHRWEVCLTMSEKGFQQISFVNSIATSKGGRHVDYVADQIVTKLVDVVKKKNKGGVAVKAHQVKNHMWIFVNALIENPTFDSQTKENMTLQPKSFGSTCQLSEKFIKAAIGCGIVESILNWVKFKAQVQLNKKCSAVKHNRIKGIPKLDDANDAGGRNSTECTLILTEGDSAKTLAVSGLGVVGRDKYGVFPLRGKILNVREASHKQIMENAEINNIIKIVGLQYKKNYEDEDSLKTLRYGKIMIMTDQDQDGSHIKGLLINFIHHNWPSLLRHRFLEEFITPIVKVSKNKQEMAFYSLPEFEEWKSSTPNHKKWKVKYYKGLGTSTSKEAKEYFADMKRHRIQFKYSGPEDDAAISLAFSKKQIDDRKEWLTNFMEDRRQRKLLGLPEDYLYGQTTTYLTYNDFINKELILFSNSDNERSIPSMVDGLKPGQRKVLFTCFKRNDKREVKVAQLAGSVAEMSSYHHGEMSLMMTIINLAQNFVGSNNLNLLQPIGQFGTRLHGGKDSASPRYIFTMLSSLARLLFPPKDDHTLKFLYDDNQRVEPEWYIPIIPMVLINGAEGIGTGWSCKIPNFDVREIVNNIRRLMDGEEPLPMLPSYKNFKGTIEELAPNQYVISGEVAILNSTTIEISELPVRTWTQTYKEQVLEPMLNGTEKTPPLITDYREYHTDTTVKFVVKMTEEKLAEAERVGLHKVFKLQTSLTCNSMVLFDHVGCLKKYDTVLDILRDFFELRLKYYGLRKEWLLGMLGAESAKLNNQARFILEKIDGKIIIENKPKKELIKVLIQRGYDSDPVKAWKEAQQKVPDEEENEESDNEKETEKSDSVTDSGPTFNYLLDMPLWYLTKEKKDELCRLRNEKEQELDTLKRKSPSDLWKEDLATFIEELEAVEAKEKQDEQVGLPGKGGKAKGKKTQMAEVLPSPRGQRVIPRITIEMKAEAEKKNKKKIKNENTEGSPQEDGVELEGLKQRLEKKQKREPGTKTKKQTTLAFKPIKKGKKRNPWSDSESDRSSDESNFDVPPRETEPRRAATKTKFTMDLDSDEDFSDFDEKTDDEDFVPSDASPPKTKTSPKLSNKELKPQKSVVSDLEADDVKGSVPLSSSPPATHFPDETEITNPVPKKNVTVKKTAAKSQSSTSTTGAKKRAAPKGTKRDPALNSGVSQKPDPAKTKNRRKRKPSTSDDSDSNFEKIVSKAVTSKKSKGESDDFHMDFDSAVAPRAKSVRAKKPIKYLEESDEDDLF

| Compound | IC50 (C6 [1]) | IC50 (DNA topoisomerase 1) | inhibition [2] | Activity (U-251 [3]) | Activity (U-87 MG [4]) | inhibition (U-87 MG [5]) | Activity (U-87 MG [6]) | Activity (U-251 [7]) | inhibition (U-251 [8]) | Activity [9] | Tmax [10] | Cmax [11] | concentration at 6 h [12] | Activity (C6 [13]) | Activity [14] | inhibition in vivo at 100 mg/kg (C6 [15]) | Survival (U-87 MG [16]) | Survival (U-251 [17]) | Activity (U-87 MG [18]) | Activity (U-251 [19]) | further results |
| --- | --- | --- | --- | --- | --- | --- | --- | --- | --- | --- | --- | --- | --- | --- | --- | --- | --- | --- | --- | --- | --- |
| COc1ccc(NC(=O)c2ccccc2Nc2cccc(Cl)c2C)cc1 | 10.1 µM | 33.6 µM | inactive | Dose-Dependent Effect | Active | Dose-Dependent Effect | Dose-Dependent Effect | 73.72% | Dose-Dependent Effect | Non-Toxic | 3.33 h | 8370 ng/mL | 5790 ng/mL | Active | Non-Toxic | 66.7% | >80% | >80% | Active | Active | inhibition [20]: Active; Activity (U-87 MG [21]): Active |
| Cc1c(Cl)cccc1Nc1ccccc1C(=O)Nc1ccc2c(c1)OCO2 | 16.9 µM | 47.6 µM | inactive | Dose-Dependent Effect | Active | Dose-Dependent Effect | Dose-Dependent Effect | 74.64% | Dose-Dependent Effect | Non-Toxic | 3.33 h | 8870 ng/mL | 4990 ng/mL | Active | Non-Toxic | 56.4% | >80% | >80% | Active | Active | inhibition [20]: Active; Activity (U-87 MG [21]): Active |
